The test concerns phospho-myosin light chain 2 (pMLC2) S19. Briefly: pMLC2 flow cytometry assay in mouse whole blood in vitro. The class given is cell-based. Conditions: ROCK1/2 inhibitor added to top concentration (30 µM) of BLU4565. In general terms: In flow cytometry, cells or beads pass a laser one at a time.

Each structure is given as a SMILES string.

As to `CC1=C(C(=O)Nc2cc3cn[nH]c3cc2F)C(c2ccc(C(F)(F)F)cc2)CC(=O)N1` (stereo not shown) [GSK429286A], the “further reduction of pMLC2 median fluorescence intensity signal compared with BLU4565 alone” value was “Minimal further reduction”.
